# Test results taken from patent US10640457B2, “Histone acetyltransferase activators and uses thereof” (The Trustees of Columbia University in the City of New York, priority 2009, dated 2020).
# Values joined by “and” are separate entries in the source; they are usually repeats but may differ in a detail not shown here. Equal entries are not always repeated. “Also recorded” adds a separate entry of the source.
# Legend:
# [1] = test system: Aβ42-infused mice; assay: Contextual and cued fear conditioning in Aβ-infused mice (YF2); type: in vivo
# Method: Contextual and cued fear conditioning was performed to assess whether the compound is capable of ameliorating amyloid-beta (Aβ) induced memory defect. Aβ is a peptide which is elevated in Alzheimer's disease. The hippocampus plays a key role in contextual memory and in Alzheimer's Disease. This type of cognitive test is much faster than other behavioral tasks that require multiple days of training and testing [Q1, Q2]; each herein incorporated by reference in its entirety. The conditioning chamber was in a sound-attenuating box. A clear Plexiglas window allowed the experimenter to film the mouse performance with a camera placed on a tripod and connected to the Freezeframe software (MED Ass. Inc.). To provide background white noise (72 dB), a single computer fan was installed in one of the sides of the sound-attenuating chamber. […] The floor was removable, and after each experimental subject, we cleaned it with 75% ethanol and then with water. Only one animal at a time was present in the experimentation room.
# For the cued and contextual conditioning experiments, mice were placed in the conditioning chamber for 2 min before the onset of a discrete tone (CS) (a sound that lasted 30 sec at 2800 Hz and 85 dB). In the last 2 sec of the CS, mice were given a foot shock (US) of 0.8 mA for 2 sec through the bars of the floor. […] Freezing behavior, defined as the absence of all movement except for that necessitated by breathing, was scored using the Freezeview software.
# To evaluate contextual fear learning, freezing was measured for 5 min (consecutively) in the chamber in which the mice was trained 24 hr after training. To evaluate cued fear learning, following contextual testing, the mice were placed in a novel context (triangular cage with smooth flat floor) for 2 min (pre-CS test), after which they were exposed to the CS for 3 min (CS test), and freezing was measured. Sensory perception of the shock was determined through threshold assessment. […] Initially, a […] shock was delivered for 1 sec, and the animal behavior was evaluated for flinching, jumping, and vocalization. […]
# [2] = target: T1, CBP (Homo sapiens, UniProt Q92793); assay: In vitro HAT activation assay, CBP; type: biochemical
# T1 construct: we will use the catalytic domain of human CBP, PCAF, p300 and GCNS (Enzo Life Sci., USA); purchased Enzo Life Sci
# T1 sequence (Q92793 1323-1700 limits assumed): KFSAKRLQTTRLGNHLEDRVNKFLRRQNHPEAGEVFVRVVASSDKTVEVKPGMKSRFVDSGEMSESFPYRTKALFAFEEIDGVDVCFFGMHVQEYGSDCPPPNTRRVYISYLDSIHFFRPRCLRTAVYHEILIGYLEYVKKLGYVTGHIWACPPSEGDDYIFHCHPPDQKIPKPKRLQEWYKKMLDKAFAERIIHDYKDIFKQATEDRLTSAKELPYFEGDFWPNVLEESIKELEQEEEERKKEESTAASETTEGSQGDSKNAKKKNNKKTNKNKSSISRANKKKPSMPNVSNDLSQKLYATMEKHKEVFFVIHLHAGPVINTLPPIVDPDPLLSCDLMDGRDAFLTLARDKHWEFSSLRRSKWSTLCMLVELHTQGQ
# Text: Compounds will be tested for HAT activator activity first, using the HAT Assay kit from Active Motif (USA, CA). For this assay, we will use the catalytic domain of human CBP, PCAF, p300 and GCNS (Enzo Life Sci., USA). The catalytic domains for the remaining HATs will be produced using New England Biolabs K. lactis Protein Expression Kit. […] When assayed against all other HATs, they must show at least a 50 fold greater potency towards CBP and/or PCAF.
# [3] = target: HDAC3/NCOR2 (Homo sapiens, UniProt O15379); assay: HDAC3/NCOR2 fluorogenic activity assay
# Sequence of HDAC3/NCOR2 (O15379 whole entry): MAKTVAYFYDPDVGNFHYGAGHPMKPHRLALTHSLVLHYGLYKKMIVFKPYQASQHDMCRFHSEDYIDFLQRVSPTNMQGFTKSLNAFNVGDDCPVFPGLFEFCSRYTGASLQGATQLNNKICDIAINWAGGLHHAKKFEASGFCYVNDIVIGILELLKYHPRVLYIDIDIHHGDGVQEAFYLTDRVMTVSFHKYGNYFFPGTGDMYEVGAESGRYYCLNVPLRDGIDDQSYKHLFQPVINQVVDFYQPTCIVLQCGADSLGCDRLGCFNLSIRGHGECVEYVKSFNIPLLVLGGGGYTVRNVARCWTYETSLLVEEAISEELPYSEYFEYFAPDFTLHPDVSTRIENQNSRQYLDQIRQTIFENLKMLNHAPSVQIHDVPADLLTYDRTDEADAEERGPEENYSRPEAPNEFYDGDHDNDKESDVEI
# Sequence of HDAC3/NCOR2 (Q9Y618 395-489 partner limits assumed): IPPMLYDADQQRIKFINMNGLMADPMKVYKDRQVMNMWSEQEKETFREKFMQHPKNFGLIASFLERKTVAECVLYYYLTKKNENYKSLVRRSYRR
# [4] = target: HDAC5FL (Homo sapiens, UniProt Q9UQL6); assay: HDAC5FL fluorogenic activity assay; details: Repeat1/Repeat2, listed as OA2
# Sequence of HDAC5FL (Q9UQL6 whole entry): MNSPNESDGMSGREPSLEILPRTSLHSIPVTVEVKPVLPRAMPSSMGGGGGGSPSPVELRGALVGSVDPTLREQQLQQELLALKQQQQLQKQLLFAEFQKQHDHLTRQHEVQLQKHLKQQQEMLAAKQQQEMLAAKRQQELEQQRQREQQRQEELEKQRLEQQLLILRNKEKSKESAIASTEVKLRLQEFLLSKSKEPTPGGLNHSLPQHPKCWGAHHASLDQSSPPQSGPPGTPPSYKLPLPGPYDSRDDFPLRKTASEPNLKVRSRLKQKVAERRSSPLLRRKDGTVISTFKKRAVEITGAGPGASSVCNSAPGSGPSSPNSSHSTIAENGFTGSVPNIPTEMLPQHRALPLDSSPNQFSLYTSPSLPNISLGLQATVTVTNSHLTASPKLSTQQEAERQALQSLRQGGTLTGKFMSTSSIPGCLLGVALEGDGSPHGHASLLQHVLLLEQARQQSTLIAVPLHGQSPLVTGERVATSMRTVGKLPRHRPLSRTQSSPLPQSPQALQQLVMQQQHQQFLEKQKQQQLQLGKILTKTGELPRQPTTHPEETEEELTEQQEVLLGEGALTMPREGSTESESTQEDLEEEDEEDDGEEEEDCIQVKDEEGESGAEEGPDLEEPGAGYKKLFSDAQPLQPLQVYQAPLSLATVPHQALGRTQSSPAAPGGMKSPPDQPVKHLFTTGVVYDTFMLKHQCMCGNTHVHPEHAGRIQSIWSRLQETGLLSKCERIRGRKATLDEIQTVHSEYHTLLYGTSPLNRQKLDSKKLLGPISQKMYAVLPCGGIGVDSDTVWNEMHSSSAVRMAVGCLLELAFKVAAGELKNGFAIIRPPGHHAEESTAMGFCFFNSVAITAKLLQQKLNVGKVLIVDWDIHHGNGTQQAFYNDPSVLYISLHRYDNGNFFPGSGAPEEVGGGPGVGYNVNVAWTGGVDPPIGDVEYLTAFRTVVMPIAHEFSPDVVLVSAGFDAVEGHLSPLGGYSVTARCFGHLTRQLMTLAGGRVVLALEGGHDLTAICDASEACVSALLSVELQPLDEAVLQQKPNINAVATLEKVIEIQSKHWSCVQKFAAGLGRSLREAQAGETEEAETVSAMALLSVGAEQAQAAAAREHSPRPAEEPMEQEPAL
# [5] = target: T2, HDAC10 (Homo sapiens, UniProt Q969S8); assay: HDAC10 fluorogenic activity assay; details: for % Activity: Repeat1/Repeat2, listed as OA2
# T2 sequence (Q969S8 1-669): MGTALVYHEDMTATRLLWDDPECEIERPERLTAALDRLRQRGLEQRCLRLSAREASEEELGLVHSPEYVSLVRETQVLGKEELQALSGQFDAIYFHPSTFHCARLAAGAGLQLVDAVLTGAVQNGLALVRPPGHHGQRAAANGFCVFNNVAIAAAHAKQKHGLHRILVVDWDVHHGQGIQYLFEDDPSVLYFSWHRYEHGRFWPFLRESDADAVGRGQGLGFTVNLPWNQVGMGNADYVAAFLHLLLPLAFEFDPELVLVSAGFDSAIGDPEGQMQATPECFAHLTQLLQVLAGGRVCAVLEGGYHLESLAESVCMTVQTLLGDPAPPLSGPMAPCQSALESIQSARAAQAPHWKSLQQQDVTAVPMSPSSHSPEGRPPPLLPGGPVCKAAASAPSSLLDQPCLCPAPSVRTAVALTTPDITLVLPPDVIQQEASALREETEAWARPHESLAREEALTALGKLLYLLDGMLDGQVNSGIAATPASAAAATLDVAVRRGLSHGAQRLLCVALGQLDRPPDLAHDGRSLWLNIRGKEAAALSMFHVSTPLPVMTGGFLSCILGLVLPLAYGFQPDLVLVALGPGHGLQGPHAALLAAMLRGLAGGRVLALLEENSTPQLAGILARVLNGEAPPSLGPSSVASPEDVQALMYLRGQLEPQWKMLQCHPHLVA
smiles,measurement,setting,value
CCOc1cccc(OCCN(C)C)c1C(=O)Nc1ccc(Cl)c(C(F)(F)F)c1 [YF2],"contextual memory, compound alone","[1]; 20 mg/kg i.p., no Aβ",did not affect
same,contextual fear memory deficit (freezing time),"[1]; Aβ42-infused mice, i.p. 20 mg/kg 2 hrs or 5 mg/kg 30 min before the electric shock",ameliorated; also recorded: dramatically increasing
same,cued memory,"[1]; different groups (vehicle, YF2, Aβ, YF2 plus Aβ)",not changed
same,EC50,[2],2.7 µM
same,IC50,[3],> 200 µM
same,% Activity,[4]; OA2 Log[nM] 0.5,99.80% and 92.90%
same,% Activity,[4]; OA2 Log[nM] 1.0,102.59% and 97.50%
same,% Activity,[4]; OA2 Log[nM] 1.5,103.20% and 104.10%
same,% Activity,[4]; OA2 Log[nM] 2.0,108.64% and 106.80%
same,% Activity,[4]; OA2 Log[nM] 2.5,108.60% and 107.17%
same,% Activity,[4]; OA2 Log[nM] 3.0,105.76% and 99.80%
same,% Activity,[4]; OA2 Log[nM] 3.5,101.30% and 99.30%
same,% Activity,[4]; OA2 Log[nM] 4.0,104.91% and 104.82%
same,% Activity,[4]; OA2 Log[nM] 4.5,95.40% and 94.11%
same,% Activity,[4]; OA2 Log[nM] 5.3,68.63% and 94.13%
same,IC50,[5],> 200 µM
same,% Activity,[5]; OA2 Log[nM] 0.5,91.08% and 101.05%
same,% Activity,[5]; OA2 Log[nM] 1.0,103.77% and 104.31%
same,% Activity,[5]; OA2 Log[nM] 1.5,105.57% and 103.85%
same,% Activity,[5]; OA2 Log[nM] 2.0,103.04% and 105.77%
same,% Activity,[5]; OA2 Log[nM] 2.5,104.90% and 105.64%
same,% Activity,[5]; OA2 Log[nM] 3.0,99.94% and 104.64%
same,% Activity,[5]; OA2 Log[nM] 3.5,96.95% and 106.25%
same,% Activity,[5]; OA2 Log[nM] 4.0,96.50% and 102.89%
same,% Activity,[5]; OA2 Log[nM] 4.5,95.38% and 102.89%
same,% Activity,[5]; OA2 Log[nM] 5.3,116.56% and 86.05%
